According to PubChem BioAssay AID256 (DTP/NCI, 2004):
Toxic doses and inconclusive results are not listed.

Test system: CD2F1 mice, L1210 leukemia ip, survival T/C
Test: NCI In Vivo Anticancer Drug Screen. Data for tumor model L1210 Leukemia (intraperitoneal) in CD2F1 (CDF1) mice
Details: higher = longer survival
Method in brief: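 Mice carrying a transplanted tumor received test compound or vehicle alone. The value is the measurement in the treated group divided by that in the vehicle-treated control group.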

[1] = endpoint: mean survival time, dose: 100.0 mg/kg/injection, schedule: Q04DX003 (ip), vehicle: saline with Tween-80
[2] = endpoint: mean survival time, dose: 200.0 mg/kg/injection, schedule: Q04DX003 (ip), vehicle: saline with Tween-80
[3] = endpoint: mean survival time, dose: 400.0 mg/kg/injection, schedule: Q04DX003 (ip), vehicle: saline with Tween-80
[4] = endpoint: mean survival time, dose: 62.5 mg/kg/injection, schedule: Q01DX005 (ip), vehicle: other
[5] = endpoint: mean survival time, dose: 125.0 mg/kg/injection, schedule: Q01DX005 (ip), vehicle: other
[6] = endpoint: mean survival time, dose: 100.0 mg/kg/injection, schedule: Q01DX009 (ip), vehicle: saline with Tween-80
[7] = endpoint: mean survival time, dose: 100.0 mg/kg/injection, schedule: Q01DX001 (ip), vehicle: saline with Tween-80
[8] = endpoint: mean survival time, dose: 200.0 mg/kg/injection, schedule: Q01DX001 (ip), vehicle: saline with Tween-80
[9] = endpoint: mean survival time, dose: 400.0 mg/kg/injection, schedule: Q01DX001 (ip), vehicle: saline with Tween-80
[10] = endpoint: mean survival time, dose: 12.5 mg/kg/injection, schedule: Q01DX005 (ip), vehicle: distilled water + Tween-80
[11] = endpoint: mean survival time, dose: 25.0 mg/kg/injection, schedule: Q01DX005 (ip), vehicle: distilled water + Tween-80
[12] = endpoint: mean survival time, dose: 50.0 mg/kg/injection, schedule: Q01DX005 (ip), vehicle: distilled water + Tween-80
[13] = endpoint: mean survival time, dose: 100.0 mg/kg/injection, schedule: Q01DX005 (ip), vehicle: distilled water + Tween-80
[14] = endpoint: mean survival time, dose: 200.0 mg/kg/injection, schedule: Q01DX005 (ip), vehicle: distilled water + Tween-80
[15] = endpoint: mean survival time, dose: 200.0 mg/kg/injection, schedule: Q01DX009 (ip), vehicle: saline with Tween-80
[16] = endpoint: mean survival time, dose: 400.0 mg/kg/injection, schedule: Q01DX009 (ip), vehicle: saline with Tween-80
[17] = endpoint: mean survival time, dose: 12.5 mg/kg/injection, schedule: Q04DX002 (ip), vehicle: Klucel (hydroxypropylcellulose) (HPC)

CC(=O)ON(C(C)=O)c1ccc(C(N)=O)cc1
T/C (endpoint: median survival time, dose: 25.0 mg/kg/injection, schedule: Q01DX009 (ip), vehicle: saline with Tween-80): 103 % of control | T/C (endpoint: median survival time, dose: 50.0 mg/kg/injection, schedule: Q01DX009 (ip), vehicle: saline with Tween-80): 100 % of control | T/C (endpoint: median survival time, dose: 100.0 mg/kg/injection, schedule: Q01DX009 (ip), vehicle: saline with Tween-80): 101 % of control | T/C (endpoint: median survival time, dose: 200.0 mg/kg/injection, schedule: Q01DX009 (ip), vehicle: saline with Tween-80): 103 % of control | T/C (endpoint: median survival time, dose: 400.0 mg/kg/injection, schedule: Q01DX009 (ip), vehicle: saline with Tween-80): 108 % of control

Cc1ccccc1C1(c2ccccc2C)OC(=O)c2ccccc21
T/C (endpoint: mean survival time, dose: 100.0 mg/kg/injection, schedule: Q04DX003 (ip), vehicle: acetone): 104 % of control | T/C (endpoint: mean survival time, dose: 200.0 mg/kg/injection, schedule: Q04DX003 (ip), vehicle: acetone): 88 % of control | T/C (endpoint: mean survival time, dose: 400.0 mg/kg/injection, schedule: Q04DX003 (ip), vehicle: acetone): 96 % of control

Cc1c(C)c2c(c(C)c1OC(=O)CCC(=O)O)CCC(C)(CCCC(C)CCCC(C)CCCC(C)C)O2 (centres undefined)
T/C [1]: 102 % of control | T/C [2]: 98 % of control | T/C [3]: 94 % of control

CC(O)CNCCNC(=O)CNC(=O)C=[N+]=[N-] (centres undefined)
T/C (endpoint: mean survival time, dose: 200.0 mg/kg/injection, schedule: Q01DX009 (ip), vehicle: other): 108 % of control | T/C (endpoint: mean survival time, dose: 800.0 mg/kg/injection, schedule: Q01DX009 (ip), vehicle: other): 155 % of control

Cn1c(=O)[nH]c2c(nc(-c3ccccc3)n2Cc2ccccc2)c1=O
T/C (endpoint: mean survival time, dose: 7.8 mg/kg/injection, schedule: Q01DX005 (ip), vehicle: other): 95 % of control | T/C (endpoint: mean survival time, dose: 15.6 mg/kg/injection, schedule: Q01DX005 (ip), vehicle: other): 95 % of control | T/C (endpoint: mean survival time, dose: 31.3 mg/kg/injection, schedule: Q01DX005 (ip), vehicle: other): 91 % of control | T/C [4]: 91 % of control | T/C [5]: 95 % of control

Cc1ccc(NC(=O)Nc2ccccc2C(N)=O)cc1[N+](=O)[O-]
T/C (endpoint: mean survival time, dose: 50.0 mg/kg/injection, schedule: Q01DX009 (ip), vehicle: saline with Tween-80): 94 % of control | T/C [6]: 98 % of control

CC(O)CC1CC(=O)CCC1=O (centres undefined)
T/C [7]: 98 % of control | T/C [8]: 103 % of control | T/C [9]: 95 % of control

CCCCNC(=S)NNC(=O)Cn1cnc2c1c(=O)n(C)c(=O)n2C
T/C [10]: 101 % of control | T/C [11]: 101 % of control | T/C [12]: 97 % of control | T/C [13]: 97 % of control | T/C [14]: 101 % of control

CC(=O)Nc1ncc2ccccc2c1-c1ccc(NC(=O)CCN(CCCl)CCCl)cc1
T/C (endpoint: mean survival time, dose: 6.25 mg/kg/injection, schedule: Q04DX003 (ip), vehicle: other): 101 % of control | T/C (endpoint: mean survival time, dose: 12.5 mg/kg/injection, schedule: Q04DX003 (ip), vehicle: other): 111 % of control | T/C (endpoint: mean survival time, dose: 25.0 mg/kg/injection, schedule: Q04DX003 (ip), vehicle: other): 112 % of control

C#CCCCCCC#[C][Hg][C]#CCCCCCC#C.C#CCCCCCC#[C][Hg][C]#CCCCCCC#C
T/C (endpoint: mean survival time, dose: 75.0 mg/kg/injection, schedule: Q04DX003 (ip), vehicle: saline): 91 % of control | T/C (endpoint: mean survival time, dose: 150.0 mg/kg/injection, schedule: Q01DX009 (ip), vehicle: saline): 91 % of control | T/C (endpoint: mean survival time, dose: 150.0 mg/kg/injection, schedule: Q04DX003 (ip), vehicle: saline): 94 % of control | T/C (endpoint: mean survival time, dose: 300.0 mg/kg/injection, schedule: Q04DX003 (ip), vehicle: saline): 94 % of control

O=Cc1ccc(/C=C2\C=Cc3ccccc32)cc1
T/C [6]: 101 % of control | T/C [15]: 94 % of control | T/C [16]: 103 % of control

CC(C)CCn1cnc2c(=S)nc(N)[nH]c21
T/C (endpoint: mean survival time, dose: 50.0 mg/kg/injection, schedule: Q01DX001 (ip), vehicle: saline with Tween-80): 118 % of control | T/C [7]: 95 % of control

COc1ccc(/C=C2/CCOC2=O)cc1
T/C (endpoint: mean survival time, dose: 3.12 mg/kg/injection, schedule: Q01DX001 (ip), vehicle: Klucel (hydroxypropylcellulose) (HPC)): 104 % of control | T/C (endpoint: mean survival time, dose: 3.12 mg/kg/injection, schedule: Q04DX002 (ip), vehicle: Klucel (hydroxypropylcellulose) (HPC)): 103 % of control | T/C (endpoint: mean survival time, dose: 6.25 mg/kg/injection, schedule: Q01DX001 (ip), vehicle: Klucel (hydroxypropylcellulose) (HPC)): 102 % of control | T/C (endpoint: mean survival time, dose: 6.25 mg/kg/injection, schedule: Q04DX002 (ip), vehicle: Klucel (hydroxypropylcellulose) (HPC)): 100 % of control | T/C (endpoint: mean survival time, dose: 12.5 mg/kg/injection, schedule: Q01DX001 (ip), vehicle: Klucel (hydroxypropylcellulose) (HPC)): 116 % of control | T/C [17]: 107 % of control

O=C(O)CNC(=O)COc1ccccc1
T/C [6]: 101 % of control | T/C [1]: 101 % of control | T/C [15]: 88 % of control | T/C [2]: 93 % of control | T/C [16]: 90 % of control | T/C [3]: 101 % of control

COc1ccc(N=Nc2sc(N)nc2-c2cccc([N+](=O)[O-])c2)cc1
T/C [7]: 93 % of control | T/C [8]: 90 % of control | T/C [9]: 97 % of control

NNc1ncnc2c1ccn2C1OC(CO)C(O)C1O (centres undefined)
T/C (endpoint: mean survival time, dose: 35.0 mg/kg/injection, schedule: Q01DX001 (ip), vehicle: saline): 116 % of control | T/C (endpoint: mean survival time, dose: 53.0 mg/kg/injection, schedule: Q01DX001 (ip), vehicle: saline): 110 % of control | T/C (endpoint: mean survival time, dose: 80.0 mg/kg/injection, schedule: Q01DX001 (ip), vehicle: saline): 112 % of control | T/C (endpoint: mean survival time, dose: 120.0 mg/kg/injection, schedule: Q01DX001 (ip), vehicle: saline): 116 % of control

CN=C1C=C(NC)C(F)(F)C1(F)F
T/C (endpoint: mean survival time, dose: 6.25 mg/kg/injection, schedule: Q04DX003 (ip), vehicle: saline): 98 % of control | T/C (endpoint: mean survival time, dose: 12.5 mg/kg/injection, schedule: Q04DX003 (ip), vehicle: saline): 101 % of control | T/C (endpoint: mean survival time, dose: 25.0 mg/kg/injection, schedule: Q04DX003 (ip), vehicle: saline): 101 % of control

CCOC(=O)c1c[nH]c2cc(OC)ccc2c1=O
T/C [1]: 91 % of control | T/C [2]: 102 % of control | T/C [3]: 100 % of control

O=C1CC(=O)C(Br)=C1Br
T/C (endpoint: mean survival time, dose: 0.75 mg/kg/injection, schedule: Q01DX009 (ip), vehicle: saline with Tween-80): 95 % of control | T/C (endpoint: mean survival time, dose: 1.5 mg/kg/injection, schedule: Q01DX009 (ip), vehicle: saline with Tween-80): 95 % of control | T/C (endpoint: mean survival time, dose: 3.0 mg/kg/injection, schedule: Q01DX009 (ip), vehicle: saline with Tween-80): 90 % of control

CC1CCN1Cc1ccccc1 (centres undefined)
T/C (endpoint: mean survival time, dose: 12.5 mg/kg/injection, schedule: Q01DX009 (ip), vehicle: acetone): 98 % of control | T/C (endpoint: mean survival time, dose: 25.0 mg/kg/injection, schedule: Q01DX009 (ip), vehicle: acetone): 98 % of control | T/C (endpoint: mean survival time, dose: 50.0 mg/kg/injection, schedule: Q01DX009 (ip), vehicle: acetone): 95 % of control

Cc1ccc(Nc2nc(N)nc3nc(N)c(C(N)=O)nc23)cc1C
T/C [17]: 91 % of control | T/C (endpoint: mean survival time, dose: 25.0 mg/kg/injection, schedule: Q04DX002 (ip), vehicle: Klucel (hydroxypropylcellulose) (HPC)): 86 % of control | T/C (endpoint: mean survival time, dose: 50.0 mg/kg/injection, schedule: Q04DX002 (ip), vehicle: Klucel (hydroxypropylcellulose) (HPC)): 91 % of control

CN(C)CCOS(C)(=O)=O
T/C (endpoint: mean survival time, dose: 100.0 mg/kg/injection, schedule: Q04DX003 (ip), vehicle: saline): 100 % of control | T/C (endpoint: mean survival time, dose: 200.0 mg/kg/injection, schedule: Q04DX003 (ip), vehicle: saline): 98 % of control | T/C (endpoint: mean survival time, dose: 400.0 mg/kg/injection, schedule: Q04DX003 (ip), vehicle: saline): 100 % of control

CCCOC(=O)c1cc([N+](=O)[O-])c(Sc2ncnc3nc[nH]c23)c([N+](=O)[O-])c1
T/C (endpoint: mean survival time, dose: 0.63 mg/kg/injection, schedule: Q01DX005 (ip), vehicle: other): 109 % of control | T/C (endpoint: mean survival time, dose: 1.25 mg/kg/injection, schedule: Q01DX005 (ip), vehicle: other): 116 % of control | T/C (endpoint: mean survival time, dose: 2.5 mg/kg/injection, schedule: Q01DX005 (ip), vehicle: other): 111 % of control | T/C (endpoint: mean survival time, dose: 5.0 mg/kg/injection, schedule: Q01DX005 (ip), vehicle: other): 111 % of control | T/C (endpoint: mean survival time, dose: 10.0 mg/kg/injection, schedule: Q01DX005 (ip), vehicle: other): 121 % of control | T/C [4]: 165 % of control | T/C [5]: 101 % of control

O=c1[nH]c(=O)n(C2OC(CO)C(O)C2O)nc1SCc1ccccc1 (centres undefined)
T/C [10]: 100 % of control | T/C [11]: 97 % of control | T/C [12]: 101 % of control | T/C [13]: 97 % of control | T/C [14]: 97 % of control
